{
  "source": "patent US20230203554A1",
  "about": "“PROCESS FOR REDUCING UNWANTED CULTURE BYPRODUCTS IN CELL CULTURE MEDIUM” (SAMSUNG BIOEPIS CO., LTD., priority 2016, published 2023)",
  "key": {"[1]": {"system": "Chinese hamster ovary (CHO) cells", "details": "8 mM ammonia; cited from earlier work"}, "CHO cells [2]": {"system": "CHO cells", "test": "Cell viability, Trypan blue exclusion method (Cedex HiRes), Examples 3 and 4", "type": "cell-based, Chinese hamster", "details": "for cell viability: 14 days after the culture", "method": "(§1) Cells were prepared using the same method as that used in Example 1, and a glutamine-free and 2×HT-containing medium was added to the prepared cells. 4 mM of uridine (catalog No.: U3003, Sigma) or 8 mM of galactose (Catalog No.: G0750, Sigma) was added to the medium. The cells were cultured at 37° C. and 5% CO2, and the medium was replaced with a fresh medium every two days. Cells cultured in a glutamine-free medium were used as a negative control.\n(§2) After about 14 days, viable cell density and cell viability were measured using a Cedex HiRes analyzer (Model No.: 05650216001, Roche) through a scanner-based imaging method and a Trypan blue exclusion method. The viable cell density (CHO cells/ml) of cells cultured in the presence of uridine and in the presence of galactose is illustrated in FIGS. 5A and 5B, respectively. In addition, the cell viability (%) of cells cultured in the presence of uridine and in the presence of galactose is illustrated in FIGS. 6A and 6B, respectively.\nas §1, with “1” for “4”, “magnesium” for “uridine (catalog No.: U3003, Sigma) or 8 mM of galactose”, “M4880,” for “G0750,”\nAfter about 14 days, viable cell density and cell viability were measured using a Cedex HiRes analyzer (Model No.: 05650216001, Roche) through a scanner-based imaging method and a Trypan blue exclusion method, respectively. The viable cell density (CHO cells/ml) and cell viability of the cells cultured in the presence of magnesium are illustrated in FIGS. 7 and 8, respectively."}, "CHO cells [3]": {"system": "CHO cells", "test": "Viable cell density, scanner-based imaging (Cedex HiRes), Examples 3 and 4", "set-up": "species or system Chinese hamster", "details": "8 mM galactose added to glutamine-free 2×HT medium; FIG. 5B", "method": "as §1, §2\nCells were prepared using the same method as that used in Example 1, and a glutamine-free and 2×HT-containing medium was added to the prepared cells. […]\nAfter about 14 days, viable cell density and cell viability were measured using a Cedex HiRes analyzer (Model No.: 05650216001, Roche) through a scanner-based imaging method and a Trypan blue exclusion method, respectively. […]"}},
  "data": [
    {"smiles": "N", "note": "[ammonia]", "values": [
      {"measurement": "inhibition of cell growth", "setting": "[1]", "result": 50, "unit": "%"}
    ]},
    {"smiles": "O=C[C@H](O)[C@@H](O)[C@@H](O)[C@H](O)CO", "note": "[galactose, reference compound]", "values": [
      {"measurement": "cell viability (printed: viable cell density), versus medium without galactose", "setting": "CHO cells [2]; 8 mM galactose added to glutamine-free 2×HT medium, FIG. 6B", "result": "no significant difference"},
      {"measurement": "viable cell density, versus medium without galactose", "setting": "CHO cells [3]", "result": "no significant difference"}
    ]},
    {"smiles": "[Mg+2]", "note": "[magnesium]", "values": [
      {"measurement": "cell viability", "setting": "CHO cells [2]; 1 mM magnesium added to glutamine-free 2×HT medium", "result": 91.5, "unit": "%"}
    ]},
    {"smiles": "O=c1ccn([C@@H]2O[C@H](CO)[C@@H](O)[C@H]2O)c(=O)[nH]1", "note": "[uridine]", "values": [
      {"measurement": "cell viability", "setting": "CHO cells [2]; 4 mM uridine added to glutamine-free 2×HT medium", "result": 94.6, "unit": "%"}
    ]}
  ]
}
